# Laboratory results published in US20040116405A1, “Use of bicyclic esters or amides for the treatment of diseases responsive to enhanced potassium channel activity” (priority 2001, published 2004).
# Target: T1, hIK channels (Homo sapiens, UniProt O15554)
# T1 construct: The full length hSK-1, 2, 3 and IK clones were obtained; expressed in transfected cells
# Experiment: Whole cell patch clamp electrophysiology, hIK channels expressed in CHO-K1 cells (FIG. 1)
# Assay type: cell-based
# Method: FIG. 1 illustrates the activation of hIK channels expressed in CHO—K1 cells by a compound of formula (V): [drawing 3]
# The full length hSK-1, 2, 3 and IK clones were obtained either by PCR and 5′-RACE from a human cDNA library (Genbank accession numbers hSK1 U69883; hSK-2 unpublished) or from the Incyte or dbEST databases (Incyte Pharmaceuticals, Inc.; hSK3 AJ251016, hIK AF022797). An optimal Kozak sequence was added to the initiation site and the cDNA was cloned into Bluescript and subsequently the IRES vector pCIN5 for mammalian expression.
# All SK/IK stable cell lines were generated in CHO—K1 using the pCIN5 construct, under selection for resistance to 500 μg/ml geneticin. Five μg of the purified plasmid DNA was used to transfect 5×10^6 CHO—K1 cells (ATCC N° CRL 9618) by electroporation (standard protocol with BIORAD Gene Pulser II). […]
# Standard whole cell patch clamp electrophysiology methods are used to record membrane currents from single cells expressing either SK or IK channels. […] Membrane currents are amplified and recorded with an Axopatch 200B or HEKA EPC-9 patch clamp amplifier coupled to a Pentium microprocessor via an analog-digital interface. […] Pipettes are backfilled with an internal solution containing a 144 mM KCl, 10 mM EGTA, 10 mM HEPES, 1 mM MgCl2 and concentrations of CaCl2 calculated to give free Ca^2+ concentrations ranging from 30 nM to 1 μM. […]
"activation of hIK channels (whole cell currents, timecourse, concentration response curves) (hIK expressed in CHO-K1 cells, FIG. 1(a)-(c))",Compound,"inhibition of hIK current by the IK blocker (charybdotoxin 100 nM, hIK in CHO-K1 cells activated by compound of formula (V), FIG. 1(d))"
activation,NC(=O)/C=C1\CCc2c(F)cc(F)cc21 [compound of formula (V)],
,charybdotoxin,inhibition
